Experiments:
ClpB protein [1] = molecular target: T1, ClpB protein (Escherichia coli, UniProt P63284); conditions: in vivo
Procedure: Plates were washed (5 min for three times) in PBS with 0.05% Tween 200, pH 7.4, and then incubated overnight at 4° C. with 100 μl of mouse plasma diluted 1:200 in PBS to determine free auto-Ab levels or diluted 1:200 in dissociative 3M NaCl and 1.5M glycine buffer, pH 8.9, to determine total auto-Ab levels. The plates were washed (three times) and incubated with 100 μl of alkaline phosphatase (AP)-conjugated goat antimouse IgG (1:2000) or anti-mouse IgM (1:1000), all obtained from Jackson ImmunoResearch Laboratories, Inc. (West Grove, Pa., USA). Following washing (three times), 100 μl of p-nitrophenyl phosphate solution (Sigma) was added as AP substrate. After 40 min of incubation at room temperature, the reaction was stopped by adding 3 N NaOH. The optical density was determined at 405 nm using a microplate reader Metertech 960 (Metertech Inc., Taipei, Taiwan). Blank optical density values resulting from the reading of plates without addition of plasma samples were subtracted from the sample optical density values. Each determination was done in duplicate.
IgG and IgM antibodies reactive with ClpB were detected by enzyme-linked immunosorbent assay using corresponding anti-mouse or anti-human AP-conjugated antibodies (Jackson ImmunoResearch Laboratories, Inc.) as described above.

[2] = molecular target: T2, adrenocorticotropic hormone (Homo sapiens, UniProt P01189); assay: ELISA of plasma IgG reacting with adrenocorticotropic hormone; format: in vivo; conditions: ClpB immunization study
T2 construct: purchased Bachem AG
T2 sequence (P01189 138-176 limits assumed): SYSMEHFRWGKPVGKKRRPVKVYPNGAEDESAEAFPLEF
From the text: (§1) Each determination was done in duplicate.

[3] = Locomotor activity and anxiety tests (open field, elevated O-maze) in immunized mice; format: in vivo
Procedure: After the feeding study, mice were placed in individual mouse-holding cages with food and water available ad libitum, and were analyzed for locomotor activity and anxiety in 0-maze (Med Associate, Inc., St Albans, Vt., USA) tests performed during 2 consecutive days. Two hours after the 0-maze test, mice were killed by decapitation in a guillotine and trunk blood was collected into EDTA-containing tubes. Plasma was separated by centrifugation at 3500 r.p.m. ([…]) for 10 min at 4° C. and stored at −80° C. before assay.
After feeding study in the BioDAQ cages, mice were analyzed for locomotor activity using a Versamax Animal Activity Monitor (AccuScan Instruments, Inc., Columbus, Ohio, USA). Next day after the locomotor activity test, all mice were tested for their anxiety in an elevated O-maze. The elevated-O-maze is a variation of more commonly used elevated plusmaze pharmacologically validated for anxiety testing in rodents. The advantage of the O-maze is that it lacks the ambiguous central square of the traditional plus-maze. The O-maze consisted of a circular infrared platform (outer diameter 120 cm) elevated 80 cm above the floor, featuring two open and two closed segments made of gray plastic. The closed segments were enclosed by walls extending 20 cm above the surface of the maze and covered with a black infrared plexiglas lid. Each test started by placing the mouse into one of the two closed segments. The test lasted 5 min and was recorded using a video camera placed above the O-maze and the EthoVision video tracking software (Noldus IT, Wageningen, The Netherlands). Measurements of distance and time spent in the open and closed segments were analyzed. Between each mouse tests, the 0-maze was cleaned with 30% ethanol.

ClpB protein [4] = molecular target: T1, ClpB protein; conditions: ClpB-immunized mice
Procedure: (§2) IgG purification and affinity assay were performed according to a published protocol (Legrand et al., Protoc Exch 2014, doi:10.1038/protex2014.004). Extraction of plasma globulins was done by plasma acidification and separation on C18 SEP column (Phoenix Pharmaceuticals, Burlingame, Calif., USA), then 500 μl of mouse plasma was mixed with 500 μl of buffer A (1% trifluoroacetic acid in water). The column was activated in 1 ml of buffer B (60% acetonitrile in 1% trifluoroacetic acid) by 3 min centrifugation with 700 r.p.m. and rinsed three times with 3 ml of buffer A. Diluted plasma (1:1 in buffer A) was added to the column and the effluent (1 ml) was saved (frozen at −20° C.) for further purification of IgG. Total IgG were purified from the effluents of mouse plasma samples using the Melon Gel Kit (Thermo Fisher Scientific, Rockford, Ill., USA). Plasma effluents diluted 1:4 in kit's purification buffer was added on washed melon gel deposited in a column. Column was spun 1 min at 6000 r.p.m., and the IgG containing effluent was saved and frozen at −20° C. before lyophilization. […]
(§3) Between injections of each sample, the binding surface was regenerated with 10 mM NaOH, resulting in the same baseline level of the sensorgram. The affinity kinetic data were analyzed using BiaEvaluation 4.1.1 program (GE Healthcare). […]

α-MSH [5] = molecular target: T3, α-MSH (Homo sapiens, UniProt P01189); assay: Affinity kinetics assay (surface plasmon resonance, BIAcore) of mouse IgG for α-MSH; format: binding; conditions: ClpB-immunized mice compared with controls
T3 construct: endogenous peptide hormone of the melanocortin family, with a tridecapeptide structure; purchased Bachem AG
Procedure: as §2, §3

[6] = ClpB immunization in mice: body weight, food intake and feeding pattern (BioDAQ cages); format: in vivo
Procedure: All experimental protocols were conducted according to US National Institutes of Health guidelines and EU directives, and animal experiments were approved by the Institutional Ethical Committees. Two-month-old male C57BI6 mice (Janvier Laboratories, L'Arbresle, France) were acclimated to the animal facility for 1 week with 12 h light-dark cycle, lights on at 0700 hours and were kept in standard mouse-holding cages (n=8) each. Mice were fed ad libitum with standard pelleted rodent chow (RM1 diet, SDS, UK) with drinking water always available and were manipulated daily by gentle holding and measuring body weight. During acclimatization, mice were distributed between four cages to obtain the similar mean body weight per mouse per cage. After 1 week of acclimatization, mice from each cage were assigned to one of four study group and received following treatments: (i) Group 1, ClpB immunization (n=8): ClpB protein (Delphi Genetics, Gosselies, Belgium) 50 μg per mouse in 200 μl of 1:1 (vol:vol) of PBS with Complete Freund's Adjuvant (Sigma, St Louis, Mo., USA), intraperitoneally (i.p.); (ii) Group 2, adjuvant injection controls (n=8): 200 μl of Complete Freund's Adjuvant in PBS (1:1 (vol:vol), i.p.); (iii) Group 3, PBS injection controls (n=8): 200 μl of PBS (i.p.); and (iv) Group 4, intact controls (n=8): received no injections, and then all mice were returned to their holding cages. Fifteen days later, mice were given a boost immunization and the following treatments: (i) Group 1 (n=8), ClpB protein (Delphi Genetics) 50 μg per mouse in 200 μl of 1:1 (vol:vol) of PBS with Incomplete Freund's Adjuvant (Sigma) i.p.; (ii) Group 2 (n=8): 200 μl of Incomplete Freund's Adjuvant in PBS (1:1 (vol:vol), i.p.); (iii) Group 3, (n=8): 200 μl of PBS (i.p.); and iv) Group 4, (n=8): received no injections. Next day after the boost, mice were placed individually into the BioDAQ mouse cages (Research Diets, Inc., New Brunswick, N.J., USA) each equipped with an automatic feeding monitor. Food (Serlab, Montataire France) and drinking water were available ad libitum and body weight was measured daily. After 3 days of acclimatization to the BioDAQ cages, mice received the following treatments: Groups 1, 2 and 3 (each n=8), that is, mice that have been immunized with ClpB, injected with adjuvants and with PBS, respectively, all received an acute injection of α-MSH peptide (Bachem AG), 100 μg·kg^−1 body weight in 100 μl of PBS (i.p.) at 1000 hours. The control mice (n=8) received PBS only (i.p.). Feeding data was continuously monitored and analyzed using the BioDAQ data viewer 2.3.07 (Research Diets). For the meal pattern analysis, the inter-meal interval was set at 300 s.

anti-α-MSH IgG = conditions: 20 and 10 μg of ClpB
Procedure: Following 2D-PAGE, E. coli cytoplasmic proteins were transferred onto Hybond-ECL PVDF membrane (GE Healthcare) via a dry transfer method (Trans Blot Cell, Bio-Rad, USA) and a constant current of 0.8 mA.cm^−2 of the membrane size for 2 h. After transfer, membranes were blocked with 5% (wt:vol) milk (Regilait, France) in phosphate-buffered saline (PBS; 10 mmol·l^−1 […], and 150 mM·l^−1 NaCl) plus 0.05% (vol:vol) Tween 20.

α-MSH [7] = molecular target: T3, α-MSH; assay: ELISA of plasma auto-antibodies reacting with α-MSH; format: in vivo
From the text: as §1

[8] = open field, between study groups
[9] = ClpB-immunized mice, last 10 days
[10] = ClpB-immunized mice, α-MSH 100 μg/kg i.p.

T1 sequence (P63284 whole entry): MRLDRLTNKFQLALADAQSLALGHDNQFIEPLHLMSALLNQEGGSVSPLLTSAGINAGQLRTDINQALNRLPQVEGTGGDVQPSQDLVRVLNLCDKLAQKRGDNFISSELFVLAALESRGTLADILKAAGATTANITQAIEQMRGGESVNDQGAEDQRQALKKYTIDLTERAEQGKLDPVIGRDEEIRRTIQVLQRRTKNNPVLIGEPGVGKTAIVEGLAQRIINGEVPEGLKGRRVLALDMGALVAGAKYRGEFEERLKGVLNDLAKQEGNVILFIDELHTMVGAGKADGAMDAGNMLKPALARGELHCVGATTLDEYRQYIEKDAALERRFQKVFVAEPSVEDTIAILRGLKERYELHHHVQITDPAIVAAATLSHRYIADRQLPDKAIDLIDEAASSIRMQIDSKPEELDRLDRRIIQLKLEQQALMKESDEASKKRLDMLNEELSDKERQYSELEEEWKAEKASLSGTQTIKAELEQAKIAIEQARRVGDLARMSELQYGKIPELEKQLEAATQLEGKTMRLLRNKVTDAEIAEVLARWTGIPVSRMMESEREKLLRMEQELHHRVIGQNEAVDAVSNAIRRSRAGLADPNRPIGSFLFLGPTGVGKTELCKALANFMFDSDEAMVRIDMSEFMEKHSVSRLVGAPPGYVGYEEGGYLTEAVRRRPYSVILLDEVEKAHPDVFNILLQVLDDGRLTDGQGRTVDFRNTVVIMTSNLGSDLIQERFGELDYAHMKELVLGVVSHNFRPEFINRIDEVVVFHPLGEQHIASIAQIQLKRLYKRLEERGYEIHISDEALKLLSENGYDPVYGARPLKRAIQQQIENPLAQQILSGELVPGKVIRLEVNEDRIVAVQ

Question: For “ClpB: chaperone protein ClpB from E. Coli K12, SEQ ID NO: 1, 857 amino acids; recombinant protein (Delphi Genetics) used for immunization”, which “plasma anti-ClpB IgG levels” value (ClpB protein [1]) is on record?
Answer: Its value is “strong increase”.

Question: What about the “plasma levels of anti-ClpB IgG after adsorption with α-MSH” value (ClpB protein [1]) of the same substance?
Answer: The value was “significantly reduced”.

Question: And the “plasma adrenocorticotropic hormone-reactive IgG” value [2]?
Answer: The value was “No significant differences”.

Question: And the “time spent in the closed arms of the O-maze” value ([3]; ClpB-immunized mice compared with all other groups)?
Answer: Its value is “less time”.

Question: And the “distance moved in the closed arms of the O-maze” value ([3]; ClpB-immunized mice compared with controls)?
Answer: Its value is “shorter distance”.

Question: What about the “time spent in the open vs border areas” value [3, 8] of the same substance?
Answer: Its value is “did not significantly differ”.

Question: And the total locomotor activity [3, 8]?
Answer: Its total locomotor activity is “did not significantly differ”.

Question: And the “affinity of anti-ClpB IgG” value (ClpB protein [4])?
Answer: Its value is “lower affinities”.

Question: And the “affinity of α-MSH-reactive IgG for α-MSH” value (α-MSH [5])?
Answer: The value was “lower affinities”.

Question: And the “body weight for a few days after injections” value ([6]; ClpB 50 μg per mouse i.p. together with adjuvant, C57Bl6 mice)?
Answer: Its value is “lower”.

Question: And the “body weight vs controls” value ([6]; ClpB-immunized mice, 4 weeks later)?
Answer: The value was “+5%”.

Question: What about the meal number [6, 9] of the same substance?
Answer: The meal number was “did not change”.

Question: And the meal size [6, 9]?
Answer: Its meal size is “increased”.

Question: What about the “mean daily food intake as compared with other groups” value ([6]; ClpB-immunized mice, last 10 days of the experiment) of the same substance?
Answer: The value was “+13%”.

Question: And the “24 h food intake following i.p. injection of α-MSH” value [6, 10]?
Answer: The value was “not affected”.

Question: What about the “body weight following i.p. injection of α-MSH” value [6, 10] of the same substance?
Answer: Its value is “not affected”.

Question: What about the “Western blot revealed with anti-α-MSH IgG” value (anti-α-MSH IgG) of the same substance?
Answer: The value was “showed a 96-kDa band”.

Question: And the “plasma levels of α-MSH IgM auto-Abs” value (α-MSH [7]; ClpB immunization study, between the groups)?
Answer: Its value is “did not significantly differ”.

Question: And the “plasma levels of α-MSH-reactive IgG” value (α-MSH [7]; ClpB-immunized mice)?
Answer: Its value is “Increased”.

Reference: patent US10729770B2, “Bacterial influence on regulation of appetite via ClpB protein mimicry of alpha-MSH” (priority 2013, dated 2020)
